Data from patent US12247033B2, “Triazole-substituted imidazo[1,2-a]pyrimidines as cGAS inhibitors” (GlaxoSmithKline Intellectual Property Development Limited, priority 2022, dated 2025).
pIC50: −log10 of the molar value. Where a name gives a salt, the structure may show the parent alone.

Columns and labels:
[1] = FaSSIF solubility (Fasted State Simulated Intestinal Fluid); assay type: physicochemical; conditions: thermodynamic from solid, FaSSIF pH 6.5, 4 h equilibration at room temperature, dynamic range 1-1000 μg/mL
Method: 1 mL of FaSSIF buffer (3 mM sodium taurocholate, 0.75 mM lecithin in sodium phosphate buffer at pH 6.5) was added to manually weighed 1 mg of the solid compound in a 4 mL vial. […] The residual solid was removed by filtration. The supernatant solution was quantified by HPLC-UV using single point calibration of a known concentration of the compound in DMSO. The dynamic range of the assay was 1-1000 μg/mL.

human CGAS (157-522) = human CGAS (157-522) (Homo sapiens, UniProt Q8N884); test: biochemical;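 note: biochemical enzyme reaction, 2′3′-cGAMP product measured by RapidFire mass spectrometry (MRM) normalised to c-di-UMP internal standard, inhibition of product formation relative to high and low control wells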
CGAS = CGAS whole blood cytokine release assay (384-well, BacMam stimulation, IP-10 by cytometric bead array); assay type: cell-based; conditions: Homo sapiens, 6 h; read-out: hWB pXC50 (converted)
Outline: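 Heparinised human donor whole blood mixed with serially diluted compound plus Null BacMam stimulus, incubated 6 h at 37° C, 5% CO2. Supernatant IP-10 quantified by cytometric bead array on flow cytometer (488 nm excitation, 585/40 nm emission); inhibition of IP-10 calculated.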

Sequence of human CGAS (157-522) (Q8N884 157-522): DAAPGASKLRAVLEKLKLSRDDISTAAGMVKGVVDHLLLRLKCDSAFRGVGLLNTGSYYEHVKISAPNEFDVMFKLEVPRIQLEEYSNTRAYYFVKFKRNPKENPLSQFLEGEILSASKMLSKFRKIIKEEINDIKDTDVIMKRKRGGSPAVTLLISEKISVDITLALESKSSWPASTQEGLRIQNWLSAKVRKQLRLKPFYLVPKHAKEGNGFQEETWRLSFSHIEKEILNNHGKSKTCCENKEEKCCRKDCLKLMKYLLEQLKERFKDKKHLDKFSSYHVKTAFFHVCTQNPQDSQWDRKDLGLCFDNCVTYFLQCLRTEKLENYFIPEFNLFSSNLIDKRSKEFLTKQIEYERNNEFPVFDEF

O=P(O)(O)OCn1nc(C(F)(F)F)nc1-c1nc2ncc(F)cn2c1-c1cnc[nH]1 [Example 34, ({5-[6-fluoro-3-(1H-imidazol-5-yl)imidazo[1,2-a]pyrimidin-2-yl]-3-(trifluoromethyl)-1H-1,2,4-triazol-1-yl}methoxy)phosphonic acid]
solubility at 4 h [1]: > 1000 µg/mL
pIC50 (human CGAS (157-522)): 6.10

Fc1cnc2nc(-c3nc(C(F)F)n[nH]3)c(-c3c[nH]cn3)n2c1 [Example 5, 3-(difluoromethyl)-5-[6-fluoro-3-(1H-imidazol-4-yl)imidazo[1,2-a]pyrimidin-2-yl]-1H-1,2,4-triazole]
IC50 (CGAS): 200 nM
pIC50 (human CGAS (157-522)): 8.60

CSc1ccn2c(-c3cnc[nH]3)c(-c3nc(C(F)(F)F)n[nH]3)nc2n1 [Example 21, 5-[3-(1H-imidazol-5-yl)-7-(methylsulfanyl)imidazo[1,2-a]pyrimidin-2-yl]-3-(trifluoromethyl)-1H-1,2,4-triazole]
IC50 (CGAS): 631 nM
pIC50 (human CGAS (157-522)): 8.30

FC(F)c1ccn2c(-c3cnc[nH]3)c(-c3nc(C(F)F)n[nH]3)nc2n1 [Example 8, 3-(difluoromethyl)-5-[7-(difluoromethyl)-3-(1H-imidazol-5-yl)imidazo[1,2-a]pyrimidin-2-yl]-1H-1,2,4-triazole]
IC50 (CGAS): 200 nM
pIC50 (human CGAS (157-522)): 8.50

FC(F)(F)COCc1cnc2nc(-c3nc(C(F)(F)F)n[nH]3)c(-c3cnc[nH]3)n2c1 [Example 111, 5-[3-(1H-imidazol-5-yl)-6-[(2,2,2-trifluoroethoxy)methyl]imidazo[1,2-a]pyrimidin-2-yl]-3-(trifluoromethyl)-1H-1,2,4-triazole]
IC50 (CGAS): 398 nM
pIC50 (human CGAS (157-522)): 8.40

COC(C)c1cnc2nc(-c3nc(C(F)(F)F)n[nH]3)c(-c3c[nH]cn3)n2c1 (centres unmarked) [Example 165, 5-[3-(1H-imidazol-4-yl)-6-(1-methoxyethyl)imidazo[1,2-a]pyrimidin-2-yl]-3-(trifluoromethyl)-1H-1,2,4-triazole]
IC50 (CGAS): 200 nM
pIC50 (human CGAS (157-522)): 8.20

CCCOc1cnc2nc(-c3nc(C(F)(F)F)n[nH]3)c(-c3cnc[nH]3)n2c1 [Example 154, 5-[3-(1H-imidazol-5-yl)-6-propoxyimidazo[1,2-a]pyrimidin-2-yl]-3-(trifluoromethyl)-1H-1,2,4-triazole]
IC50 (CGAS): 501 nM
pIC50 (human CGAS (157-522)): 8.40

N#Cc1ccn2c(-c3c[nH]cn3)c(-c3nc(C(F)(F)F)n[nH]3)nc2n1 [Example 124, 3-(1H-imidazol-4-yl)-2-[3-(trifluoromethyl)-1H-1,2,4-triazol-5-yl]imidazo[1,2-a]pyrimidine-7-carbonitrile]
IC50 (CGAS): 158 nM
pIC50 (human CGAS (157-522)): 8.20

FC(F)(F)c1n[nH]c(-c2nc3nc4c(cn3c2-c2cnc[nH]2)CNCC4)n1 [Example 74, 6-(1H-imidazol-5-yl)-5-[3-(trifluoromethyl)-1H-1,2,4-triazol-5-yl]-2,4,7,11-tetraazatricyclo[7.4.0.0^3,^7]trideca-1,3,5,8-tetraene]
IC50 (CGAS): 1260 nM
pIC50 (human CGAS (157-522)): 8.10

CC1COC(COCc2cnc3nc(-c4nc(C(F)(F)F)n[nH]4)c(-c4c[nH]cn4)n3c2)C1 (centres unmarked) [Example 156, 5-[3-(1H-imidazol-4-yl)-6-{[(4-methyloxolan-2-yl)methoxy]methyl}imidazo[1,2-a]pyrimidin-2-yl]-3-(trifluoromethyl)-1H-1,2,4-triazole]
IC50 (CGAS): 631 nM
pIC50 (human CGAS (157-522)): 8.00

FC(F)c1cnc2nc(-c3nc(C(F)(F)F)n[nH]3)c(-c3c[nH]cn3)n2c1 [Example 120, 5-[6-(difluoromethyl)-3-(1H-imidazol-4-yl)imidazo[1,2-a]pyrimidin-2-yl]-3-(trifluoromethyl)-1H-1,2,4-triazole]
IC50 (CGAS): 631 nM
pIC50 (human CGAS (157-522)): 8.20

FC(F)(F)c1n[nH]c(-c2nc3ncc(C4CCCC4)cn3c2-c2cnc[nH]2)n1 [Example 16, 5-[6-cyclopentyl-3-(1H-imidazol-5-yl)imidazo[1,2-a]pyrimidin-2-yl]-3-(trifluoromethyl)-1H-1,2,4-triazole, trifluoroacetic acid salt]
IC50 (CGAS): 3160 nM
pIC50 (human CGAS (157-522)): 8.40

FC(F)(F)c1n[nH]c(-c2nc3ncc(COCCC4COCCO4)cn3c2-c2c[nH]cn2)n1 (centres unmarked) [Example 145, 5-(6-{[2-(1,4-dioxan-2-yl)ethoxy]methyl}-3-(1H-imidazol-4-yl)imidazo[1,2-a]pyrimidin-2-yl)-3-(trifluoromethyl)-1H-1,2,4-triazole]
IC50 (CGAS): 1000 nM
pIC50 (human CGAS (157-522)): 8.00

COCc1cnc2nc(-c3nc(C(F)F)n[nH]3)c(-c3cnc[nH]3)n2c1 [Example 86, 3-(difluoromethyl)-5-[3-(1H-imidazol-5-yl)-6-(methoxymethyl)imidazo[1,2-a]pyrimidin-2-yl]-1H-1,2,4-triazole]
IC50 (CGAS): 50.1 nM
pIC50 (human CGAS (157-522)): 8.40

CS(=O)(=O)c1cnc2nc(-c3nc(C(F)(F)F)n[nH]3)c(-c3cnc[nH]3)n2c1 [Example 22, 5-[3-(1H-imidazol-5-yl)-6-methanesulfonylimidazo[1,2-a]pyrimidin-2-yl]-3-(trifluoromethyl)-1H-1,2,4-triazole]
IC50 (CGAS): 7940 nM
pIC50 (human CGAS (157-522)): 7.60

FC(F)c1n[nH]c(-c2nc3ncccn3c2-c2cn[nH]c2)n1 [Example 90, 3-(difluoromethyl)-5-[3-(1H-pyrazol-4-yl)imidazo[1,2-a]pyrimidin-2-yl]-1H-1,2,4-triazole]
IC50 (CGAS): 1000 nM
pIC50 (human CGAS (157-522)): 8.00

N#CCCOCc1cnc2nc(-c3nc(C(F)(F)F)n[nH]3)c(-c3cnc[nH]3)n2c1 [Example 105, 3-{[3-(1H-imidazol-5-yl)-2-[3-(trifluoromethyl)-1H-1,2,4-triazol-5-yl]imidazo[1,2-a]pyrimidin-6-yl]methoxy}propanenitrile]
IC50 (CGAS): 1000 nM
pIC50 (human CGAS (157-522)): 8.50

CNCc1cnc2nc(-c3nc(C(F)(F)F)n[nH]3)c(-c3cnc[nH]3)n2c1 [Example 75, {[3-(1H-imidazol-5-yl)-2-[3-(trifluoromethyl)-1H-1,2,4-triazol-5-yl]imidazo[1,2-a]pyrimidin-6-yl]methyl}(methyl)amine]
IC50 (CGAS): 631 nM
pIC50 (human CGAS (157-522)): 8.00

CCOCc1cnc2nc(-c3nc(C(F)(F)F)n[nH]3)c(-c3cnc[nH]3)n2c1 [Example 79, 5-[6-(ethoxymethyl)-3-(1H-imidazol-5-yl)imidazo[1,2-a]pyrimidin-2-yl]-3-(trifluoromethyl)-1H-1,2,4-triazole]
IC50 (CGAS): 100 nM
pIC50 (human CGAS (157-522)): 8.50

FC(F)(F)c1n[nH]c(-c2nc3ncc(COC4CCOC4)cn3c2-c2cnc[nH]2)n1 (centres unmarked) [Example 78, 5-[3-(1H-imidazol-5-yl)-6-[(oxolan-3-yloxy)methyl]imidazo[1,2-a]pyrimidin-2-yl]-3-(trifluoromethyl)-1H-1,2,4-triazole]
IC50 (CGAS): 398 nM
pIC50 (human CGAS (157-522)): 8.10

FC(F)(F)c1n[nH]c(-c2nc3nc(Cl)ccn3c2-c2cnc[nH]2)n1 [Example 7, 5-[7-chloro-3-(1H-imidazol-5-yl)imidazo[1,2-a]pyrimidin-2-yl]-3-(trifluoromethyl)-1H-1,2,4-triazole, trifluoroacetic acid salt]
IC50 (CGAS): 1580 nM
pIC50 (human CGAS (157-522)): 8.20

FC(F)(F)c1n[nH]c(-c2nc3ncc(COCC(F)(F)C(F)(F)C(F)(F)F)cn3c2-c2cnc[nH]2)n1 [Example 123, 5-{6-[(2,2,3,3,4,4,4-heptafluorobutoxy)methyl]-3-(1H-imidazol-5-yl)imidazo[1,2-a]pyrimidin-2-yl}-3-(trifluoromethyl)-1H-1,2,4-triazole]
IC50 (CGAS): 1260 nM
pIC50 (human CGAS (157-522)): 8.20

FC(F)(F)c1n[nH]c(-c2nc3ncc(C4CCOC4)cn3c2-c2cnc[nH]2)n1 (centres unmarked) [Example 66, 5-[3-(1H-imidazol-5-yl)-6-(oxolan-3-yl)imidazo[1,2-a]pyrimidin-2-yl]-3-(trifluoromethyl)-1H-1,2,4-triazole]
IC50 (CGAS): 316 nM
pIC50 (human CGAS (157-522)): 8.60

FC(F)(F)c1n[nH]c(-c2nc3ncc(COC4CCNC4)cn3c2-c2cnc[nH]2)n1 (centres unmarked) [Example 80, 5-[3-(1H-imidazol-5-yl)-6-[(pyrrolidin-3-yloxy)methyl]imidazo[1,2-a]pyrimidin-2-yl]-3-(trifluoromethyl)-1H-1,2,4-triazole]
IC50 (CGAS): 12600 nM
pIC50 (human CGAS (157-522)): 8.50

CC(=O)c1ccn2c(-c3cnc[nH]3)c(-c3nc(C(F)(F)F)n[nH]3)nc2n1 [Example 14, 1-[3-(1H-imidazol-5-yl)-2-[3-(trifluoromethyl)-1H-1,2,4-triazol-5-yl]imidazo[1,2-a]pyrimidin-7-yl]ethan-1-one]
IC50 (CGAS): 63.1 nM
pIC50 (human CGAS (157-522)): 8.00

FC(F)(F)c1n[nH]c(-c2nc3ncc(COCCC4CCOC4)cn3c2-c2cnc[nH]2)n1 (centres unmarked) [Example 139, 5-[3-(1H-imidazol-5-yl)-6-{[2-(oxolan-3-yl)ethoxy]methyl}imidazo[1,2-a]pyrimidin-2-yl]-3-(trifluoromethyl)-1H-1,2,4-triazole]
IC50 (CGAS): 398 nM
pIC50 (human CGAS (157-522)): 8.10

FC(F)(F)c1n[nH]c(-c2nc3nc4c(cn3c2-c2c[nH]cn2)C2CCC(C4)O2)n1 (centres unmarked) [Example 136, 5-(1H-imidazol-4-yl)-6-[3-(trifluoromethyl)-1H-1,2,4-triazol-5-yl]-15-oxa-4,7,9-triazatetracyclo[10.2.1.0^2,^10.0^4,^8]pentadeca-2,5,7,9-tetraene]
IC50 (CGAS): 316 nM
pIC50 (human CGAS (157-522)): 8.10

COCc1cn2c(-c3cnc[nH]3)c(-c3nc(C(F)(F)F)n[nH]3)nc2nc1C(F)(F)F [Example 114, 5-[3-(1H-imidazol-5-yl)-6-(methoxymethyl)-7-(trifluoromethyl)imidazo[1,2-a]pyrimidin-2-yl]-3-(trifluoromethyl)-1H-1,2,4-triazole]
IC50 (CGAS): 1000 nM
pIC50 (human CGAS (157-522)): 8.40
